Patent US4650785A, “Pharmaceutical composition having an excellent absorption property” (Ajinomoto Company Incoporated, priority 1982, dated 1987)
Where a SMILES comes first, the peptide text is derived from it. [ ]: non-standard residue; d: D form. The star is where a group is joined. Cbz = O=C(OCc1ccccc1)*

System: Female ICR-CD-1 mice
Experiment: Oral administration of absorption promoter mixed with insulin to mice: decrease in blood glucose and elevation of blood insulin versus control
Format: in vivo
Parameters: Degree of Elevation of Blood Insulin: unit not given here
Description: The absorption promoter samples listed in Table 2 were dissolved or suspended in 0.5% CMC-0.05M tris-HCl buffers (pH: 7.8) and the solutions or suspensions were mixed with aqueous insulin solution. Female ICR-CD-1 mice 5 to 7 weeks old were orally administered predetermined amounts of the mixtures. A predetermined duration later, the percent decrease in blood glucose and the degree of elevation of blood insulin as compared with the control group were measured. The symbol "Z" in the structural formulas in the table represents a benzyloxycarbonyl group. The upper figures in the columns "effectiveness" represent the percent decrease in blood glucose and the lower parenthesized figures indicate the degree of elevation in blood insulin.

[1] = oral, mice, sample 3.0 mg/10 g with insulin 2.5 U/10 g body weight, 30 minutes, vs control group
[2] = oral, mice, sample 3.0 mg/10 g with insulin 2.5 U/10 g body weight, 60 minutes, vs control group
[3] = oral, mice, sample 6.0 mg/10 g with insulin 2.5 U/10 g body weight, 30 minutes, vs control group
[4] = oral, mice, sample 6.0 mg/10 g with insulin 2.5 U/10 g body weight, 60 minutes, vs control group
[5] = oral, mice, sample 3.1 mg/10 g with insulin 2.5 U/10 g body weight, 30 minutes, vs control group
[6] = oral, mice, sample 3.1 mg/10 g with insulin 2.5 U/10 g body weight, 60 minutes, vs control group
[7] = oral, mice, sample 1.5 mg/10 g with insulin 2.5 U/10 g body weight, 30 minutes, vs control group
[8] = oral, mice, sample 1.5 mg/10 g with insulin 2.5 U/10 g body weight, 60 minutes, vs control group

SMILES	Decrease in Blood Glucose (%) [1] [%]	Decrease in Blood Glucose (%) [2] [%]	Decrease in Blood Glucose (%) [3] [%]	Degree of Elevation of Blood Insulin [3]	Decrease in Blood Glucose (%) [4] [%]	Degree of Elevation of Blood Insulin [4]	also measured
O=C(NC(Cc1ccc(F)cc1)C(=O)N[C@@H](Cc1ccccc1)C(=O)O)OCc1ccccc1 (mixture of isomers) [Sample S-22, N-benzyloxycarbonyl-4-fluoro-DL-phenylalanyl-L-phenylalanine]	63.7	51.9	–	–	–	–	–
O=C(N[C@@H](Cc1ccccc1)C(=O)NC(Cc1ccc(F)cc1)C(=O)O)OCc1ccccc1 (mixture of isomers) [Sample S-23, N-benzyloxycarbonyl-L-phenylalanyl-4-fluoro-DL-phenylalanine]	67.5	39.4	–	–	–	–	–
O=C(COc1ccc([N+](=O)[O-])cc1)NC(Cc1ccc([N+](=O)[O-])cc1)C(=O)O (racemic) [Sample S-2, N-[(4-nitrophenoxy)acetyl]-4-nitro-DL-phenylalanine]	–	–	23.2	> 119	60.0	89.7	–
Cc1ccc(S(=O)(=O)NC(Cc2ccccc2)C(=O)O)cc1 (racemic) [Sample S-34, N-(4-toluenesulfonyl)-DL-phenylalanine]	–	–	27.3	13.8	93.1	6.52	–
O=C(Cc1cccc2ccccc12)N[C@@H](Cc1ccccc1)C(=O)O [Sample S-1, N-[(1-naphthyl)acetyl]-L-phenylalanine]	–	–	84.9	56.4	75.4	60.0	–
O=C(N[C@@H](Cc1ccc(OC(=O)OCc2ccccc2)cc1)C(=O)O)OCc1ccccc1 [Sample S-4, N,O-bis-(benzyloxycarbonyl)-L-tyrosine]	52.7	31.1	–	–	–	–	Degree of Elevation of Blood Insulin [1]: 6.54; Degree of Elevation of Blood Insulin [2]: 2.04
O=C(COc1ccccc1)N[C@@H](Cc1ccc([N+](=O)[O-])cc1)C(=O)O [Sample S-6, N-phenoxyacetyl-4-nitro-L-phenylalanine]	–	–	–	–	–	–	Decrease in Blood Glucose (%) [5]: 21.5%; Degree of Elevation of Blood Insulin [5]: 20.6; Decrease in Blood Glucose (%) [6]: 44.7%; Degree of Elevation of Blood Insulin [6]: 21.8
O=C(CCCc1ccccc1)N[C@@H](Cc1ccccc1)C(=O)O [Sample S-8, N-(4-phenylbutyrol)-L-phenylalanine]	–	–	57.1	7.31	35.6	9.64	–
O=C(COc1ccccc1)N[C@H](Cc1ccccc1)C(=O)O [Sample S-9, N-phenoxyacetyl-D-phenylalanine]	37.3	29.7	–	–	–	–	Degree of Elevation of Blood Insulin [1]: 11.8; Degree of Elevation of Blood Insulin [2]: 2.67
O=C(N[C@@H](Cc1ccccc1)C(=O)O)c1ccccc1 [Sample S-14, N-benzoyl-L-phenylalanine]	–	–	35.2	6.31	37.8	3.31	–
O=C(N[C@@H](Cc1ccc(O)cc1)C(=O)O)OCc1ccccc1 [Sample S-16, N-benzyloxycarbonyl-L-tyrosine]	–	–	31.0	50.0	–	2.99	Decrease in Blood Glucose (%) (po, 6 mg, 1 h): 27.2%
O=C(N[C@H](Cc1ccccc1)C(=O)N[C@@H](Cc1ccccc1)C(=O)O)OCc1ccccc1 [Sample S-20, N-benzyloxycarbonyl-D-phenylalanyl-L-phenylalanine] (Cbz-[dF]-Phe-OH)	–	–	–	–	–	–	Decrease in Blood Glucose (%) [7]: 22.4%; Degree of Elevation of Blood Insulin [7]: 2.33; Decrease in Blood Glucose (%) [8]: 32.7%; Degree of Elevation of Blood Insulin [8]: 2.46
